From US12042486B2, “Use of bulleyaconitine A” (YUNNAN HAOPY PHARMACEUTICALS LTD, priority 2018, dated 2024)
Values joined by “and” are separate entries in the source; they are usually repeats but may differ in a detail not shown here. Equal values may be shown once.

Experiments:
Format in all cases: in vivo, mouse
[1] = system: acute itch caused by chloroquine; experiment: Acute itch model: scratching of mice after subcutaneous chloroquine, BLA given intragastrically 2 h before; conditions: for Number of scratching in mouse in the chloroquine group (single animals): between 2 and 2.5 hours after BLA (30 min), individual mouse; for Number of scratching in mouse in the chloroquine group, average number: 30 min, solvent group 92.565556
Source text: (§1) Researches over the years have shown that itch is mainly transmitted by two types of C fibers, with one sensitive to histamine and the other to chloroquine. Therefore, the scratching response of animals caused by subcutaneous injection of histamine or chloroquine is internationally recognized as an acute itch model. The present disclosure is aimed to investigate whether the intragastric administration of bulleyaconitine A (BLA) can inhibit acute itch caused by histamine or chloroquine.
(§2) 6-8 weeks old C57 mice were employed in experiments (body weight of 17-20 grams, from the Experimental Animal Center of Sun Yat-Sen University). The mice were randomly divided into four groups, namely solvent+histamine control group, BLA+histamine group, solvent+chloroquine control group and BLA+chloroquine group. For the convenience of subcutaneous injection and observation of scratching, the hair around the neck and back (at least 3×5 cm) was shaved off under temporary anesthesia with isoflurane three days before the start of the experiments. The control group was given a subcutaneous injection of 50 μl of histamine (2 mg/ml) or chloroquine (4 mg/ml), with an intragastric administration of a solvent (carboxymethyl cellulose) 2 hours before the injection. The experiment group was given an intragastric administration of BLA with different dosages (0.125, 0.25 and 0.5 mg/kg), 2 hours before the injection of histamine or chloroquine. The BLA was administered 2 hours in advance, because it needs 1.5-2 hours for BLA to take effect from its intragastric administration. The number of scratching in each group was counted within 30 minutes for comparison, because the acute scratching response induced by histamine or chloroquine subsided 30 minutes later after drug injection as shown by previous studies.
(§3) During the recording in experiment, the mice were placed in separate, transparent acrylic boxes having a size of 15×15×20 cm each, and with two small openings at top of each box to allow air to circulate. The scratching behavior was recorded as video by a camera, which was placed above mouse because their behaviors of scratching their back or neck mostly happen in an angle of view directly opposite to their upper back.
(§4) In order to minimize attentional shift and eliminate tension as much as possible, each transparent box was supplied with a small amount of padding, to absorb any urine excreted from the mouse. The ambient temperature was kept at 23-27° C., and additionally all the staff were asked to leave during the recording to keep the experimental environment quiet. The experiment was carried out between 9:00-14:00 h. To acclimatize the animals to the test environment, the mouse had been acclimatized in the transparent box for one hour at 9:00 and 13:00 every day since two days before the formal experiment. Because the scratching of a mice often happens quickly, the action from mice starting to scratch its neck or back by its hind paw until the hind paw hitting on the ground or being put into its mouth to clean the dander is taken as one scratching behavior.
(§5) Statistical methods: the number of scratching was represented by average value±standard deviation, and Turkey test was employed to compare the difference between different groups.
(§6) Solution preparation and application method: 0.05 g of BLA was weighed and dissolved in 1000 ml of 0.5% sodium carboxymethyl cellulose solution. Histamine and chloroquine were prepared with 0.9% sterile saline, to make a dosage of histamine 100 μg and chloroquine 200 μg. To minimize the skin injure at the injection site, a thinner needle in 0.3 ml for insulin was connected to the needle port of the microinjector to reduce injure to mouse.

[2] = Observation of drowsiness or other side effects in mice of the itch experiments
Source text: as §2
BLA inhibited the itch caused by histamine or chloroquine in a manner of depending on the dosage of intragastric administration.

[3] = system: acute itch caused by histamine; experiment: Acute itch model: scratching of mice after subcutaneous histamine, BLA given intragastrically 2 h before; conditions: for Number of scratching in mouse in the histamine group (single animals): between 2 and 2.5 hours after BLA (30 min), individual mouse; for Number of scratching in mouse in the histamine group, average number: 30 min, solvent group 36.56667
Source text: as §1, §2, §3, §4, §5, §6

[4] = 0.5 mg/kg intragastric, P<0.001 vs solvent group
[5] = oral administration, 0.125-0.5 mg/kg

CCN1C[C@]2(COC)CC[C@H](OC)[C@]34C1[C@H]([C@H](OC)[C@H]23)[C@@]1(OC(C)=O)C[C@H](OC)[C@]2(O)C[C@@H]4[C@@H]1[C@H]2OC(=O)c1ccc(OC)cc1 [BLA, Bulleyaconitine A]
Number of scratching in mouse in the chloroquine group (single animals) ([1]; 0.125 mg/kg BLA intragastric + chloroquine s.c.): 29 and 70 and 90 and 31 and 115 and 185 and 89 and 40 and 130 and 23 and 197 and 24 (2×) and 53 and 10 and 182 and 27 and 26 and 138 and 48 and 41 and 62 and 34 and 93 and 45 | Number of scratching in mouse in the chloroquine group, average number ([1]; 0.125 mg/kg BLA intragastric + chloroquine, n=25): 72.24 | Inhibition of acute itch caused by chloroquine (in words) ([1]; 0.125 mg/kg intragastric, P>0.05, not statistically significant): only had slightly inhibitory effect | Number of scratching in mouse in the chloroquine group (single animals) ([1]; 0.25 mg/kg BLA intragastric + chloroquine s.c.): 43 and 75 (2×) and 136 and 0 (3×) and 33 and 101 and 25 (2×) and 38 and 26 and 30 and 78 (3×) and 34 and 37 and 10 and 64 and 118 and 53 and 17 and 23 and 143 and 80 and 47 | Number of scratching in mouse in the chloroquine group, average number ([1]; 0.25 mg/kg BLA intragastric + chloroquine, n=28): 52.39 | Inhibition of scratching response caused by chloroquine (in words) ([1]; 0.25 mg/kg intragastric, P<0.01 vs solvent group): significantly inhibited | Number of scratching in mouse in the chloroquine group (single animals) ([1]; 0.5 mg/kg BLA intragastric + chloroquine s.c.): 0 (13×) and 27 and 20 and 23 | Number of scratching in mouse in the chloroquine group, average number ([1]; 0.5 mg/kg BLA intragastric + chloroquine, n=16): 4.3875 | Inhibition of acute itch caused by chloroquine (in words) [1, 4]: completely inhibited | Dose dependence of inhibition of itching caused by chloroquine [1, 5]: in a dosage-dependent manner | Drowsiness or other side effects in mouse ([2]; 0.125 mg/kg intragastric): no drowsiness or other side effects in mouse was observed | Drowsiness or other side effects in mouse ([2]; 0.25 mg/kg intragastric): no drowsiness or other side effects in mouse was observed | Drowsiness in mouse ([2]; 0.5 mg/kg intragastric): drowsiness in mouse was observed | Number of scratching in mouse in the histamine group (single animals) ([3]; 0.125 mg/kg BLA intragastric + histamine s.c.): 22 and 33 and 0 and 18 (2×) and 47 and 43 (3×) and 77 and 60 and 46 (2×) and 42 and 16 and 21 and 87 and 26 and 17 and 38 (3×) and 37 and 3 and 84 and 35 and 64 and 52 and 6 and 25 | Number of scratching in mouse in the histamine group, average number ([3]; 0.125 mg/kg BLA intragastric + histamine, n=30): 37.5 | Inhibition of itching caused by histamine (in words) ([3]; 0.125 mg/kg intragastric): did not inhibit | Number of scratching in mouse in the histamine group, average number ([3]; 0.25 mg/kg BLA intragastric + histamine, n=38): 24.76 | Inhibition of scratching response caused by histamine (in words) ([3]; 0.25 mg/kg intragastric, P<0.05 vs solvent group): significantly inhibited | Number of scratching in mouse in the histamine group (single animals) ([3]; 0.5 mg/kg BLA intragastric + histamine s.c.): 0 (12×) and 50 and 38 and 48 and 26 | Number of scratching in mouse in the histamine group, average number ([3]; 0.5 mg/kg BLA intragastric + histamine, n=16): 10.1325 | Inhibition of acute itch caused by histamine (in words) [3, 4]: completely inhibited | Dose dependence of inhibition of itching caused by histamine [3, 5]: in a dosage-dependent manner
